Earlier results as cited in US20040213859A1, “Organic nutrient for hair loss treatment” (priority 1999, published 2004).

Legend:
[1] = molecular target: T1, type II 5-alpha-reductase (Homo sapiens, UniProt P31213); conditions: by inhibiting conversion of testosterone to DHT
T1 construct: host or cells: scalp (in vivo, treated individuals)
T1 sequence (P31213 1-254): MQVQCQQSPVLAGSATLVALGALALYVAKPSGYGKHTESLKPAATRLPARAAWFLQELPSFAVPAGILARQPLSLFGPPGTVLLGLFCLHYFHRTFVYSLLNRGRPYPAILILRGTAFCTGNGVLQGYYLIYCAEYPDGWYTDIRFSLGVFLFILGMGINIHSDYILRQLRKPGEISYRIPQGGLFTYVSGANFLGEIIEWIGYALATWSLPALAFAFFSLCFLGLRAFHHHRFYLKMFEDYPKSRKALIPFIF

adrogenetic alopecia = conditions: oral administration

In the case of `CC(C)(C)NC(=O)[C@H]1CC[C@H]2[C@@H]3CC[C@H]4NC(=O)C=C[C@]4(C)[C@H]3CC[C@]12C` [Finisteride], the “scalp DHT (dihydrotestosterone)” value [1] is listed as “effective in decreasing scalp DHT” and the “hair loss, hair growth and appearance of hair” value (adrogenetic alopecia) is listed as “slowed hair loss, increased hair growth and improved the appearance of hair”.
